Here are results for three compounds from patent US4698347A, “Octahydro-oxazolo[4,5-g]quinolines derivatives and decahydro quinoline intermediates and their use as dopamine D-2 agonists” (Eli Lilly and Company, priority 1986, dated 1987).

“And” between values parts separate entries of the source, which are not always exact repeats. Equal values may be shown once.

The test system of test [1] is spontaneously hypertensive rats (SHR). Nature of the test: Blood pressure and heart rate in anesthetized spontaneously hypertensive rats (SHR), i.v. Particulars: for % change in BP (mean arterial blood pressure ± standard error) / % change in heart rate (± standard error): four rats. It counts as in vivo, rat. The protocol: The compounds of this invention I, and III are effective in the treatment of hypertension.
Adult male spontaneously hypertensive rats (SHR) (Taconic Farms, Germantown, N.Y.), weighing approximately 300 g. were anesthetized with pentobarbital sodium (60 mg./kg., i.p.). The trachea was cannulated and SHR respired room air. Pulsatile arterial blood pressure was measured from a cannulated carotid artery using a Statham transducer (P23 ID). Mean arterial blood pressure was calculated as diastolic blood pressure plus 1/3 pulse pressure. Cardiac rate was monitored by a cardiotachometer which was triggered by the systolic pressure pulse. Drug solutions were administered i.v. through a catheter placed in a femoral vein. Arterial blood pressure and cardiac rate were recorded on a multichannel oscillograph (Beckman, Model R511A). Fifteen minutes were allowed to elapse following surgery for equilibration of the preparation.
In the table, column 1 gives the name of the drug, column 2 dose in μg/kg, column 3 percent change in mean arterial blood pressure plus or minus standard error and column 4, percent change in heart rate plus or minus standard error. Four rats were used at each dose level.

For test [2], the system named is apomorphine binding sites. Kind of test: Inhibition of 3H-apomorphine binding (vs spiperone sites). Particulars: printed as 40 to 1. From the text: With trans-(±)-2-methyl-5-n-propyl-4,4a,5,6,7,8,8a,9-octahydrooxazolo[4,5-g]quinoline; the ratio of binding, to apomorphine sites vs spiperone sites is 40 to 1.

Regarding `CCCN1CCC[C@H]2Cc3nc(N)oc3C[C@@H]21` (racemic) [Trans-(±)-2-amino-5-n-propyl-4,4a,5,6,7,8,8a,9-octahydro-oxazolo[4,5-g]quinoline], the “% change in BP (mean arterial blood pressure ± standard error)” value is -18.3 ± 5.7% in test [1] (dose 0.1 μg/kg), -8.6 ± 1.6% in test [1] (dose 1 μg/kg) and -15.1 ± 1.1% in test [1] (dose 10 μg/kg). The “% change in heart rate (± standard error)” value in test [1] (dose 0.1 μg/kg) was -8.5 ± 2.2%; in test [1] (dose 1 μg/kg), -4.4 ± 0.9%; in test [1] (dose 10 μg/kg) it was -5.6 ± 0.7%; in test [1] (dose 100 μg/kg), -17.5 ± 2.3% and -19.1 ± 3.4%. For the same compound, in test [1] (dose 100 μg/kg), the “Duration of change in BP” value was “* (Duration of 15 min or greater)”.
Regarding `CCCN1CCC[C@H]2Cc3nc(C)oc3C[C@@H]21` (racemic) [Trans-(±)-2-methyl-5-n-propyl-4,4a,5,6,7,8,8a,9-octahydro-oxazolo[4,5-g]quinoline], the “% change in BP (mean arterial blood pressure ± standard error)” value in test [1] (dose 1 μg/kg) is given as -3.2 ± 0.5%; in test [1] (dose 10 μg/kg), -7.0 ± 1.0%; in test [1] (dose 100 μg/kg), -19.6 ± 1.4%; in test [1] (dose 1000 μg/kg) it was -26.2 ± 4.3%. The “% change in heart rate (± standard error)” value in test [1] (dose 1 μg/kg) is -2.4 ± 0.8%; in test [1] (dose 10 μg/kg), -2.8 ± 0.4%; in test [1] (dose 100 μg/kg) it was -16.1 ± 7.6%; in test [1] (dose 1000 μg/kg), -23.6 ± 4.4%. Besides, the “Duration of change in BP” value in test [1] (dose 100 μg/kg) and in test [1] (dose 1000 μg/kg) was “* (Duration of 15 min or greater)” throughout. Besides, in test [2], the “ratio of binding, to apomorphine sites vs spiperone sites” value was 40.
On to `CCCN1CCC[C@H]2Cc3ncoc3C[C@@H]21` (racemic) [trans-(±)-5-n-propyl-4,4a,5,6,7,8,8a,9-octahydro-oxazolo[4,5-g]quinoline], for which the “% change in BP (mean arterial blood pressure ± standard error)” value is given as -5.0 ± 1.2% in test [1] (dose 1 μg/kg), -10.2 ± 1.0% in test [1] (dose 10 μg/kg), -27.4 ± 20% in test [1] (dose 100 μg/kg) and -37.7 ± 4.9% in test [1] (dose 1000 μg/kg). Besides, the “% change in heart rate (± standard error)” value was -3.6 ± 0.5% in test [1] (dose 1 μg/kg), -4.6 ± 0.6% in test [1] (dose 10 μg/kg), -28.5 ± 2.6% in test [1] (dose 100 μg/kg) and -31.8 ± 3.7% in test [1] (dose 1000 μg/kg). In addition, the “Duration of change in BP” value in test [1] (dose 100 μg/kg) and in test [1] (dose 1000 μg/kg) was “* (Duration of 15 min or greater)” throughout.
